According to patent US20230248826A1, “Synchronizing Tumor Cells to the G2/M Phase Using TTFields Combined with Taxane or Other Anti-Microtubule Agents” (Novocure GmbH, priority 2016, published 2023):

Experiments:
Type in all cases: cell-based, human
[1] = system: OVCAR-3 cells; test: Cell cycle analysis by flow cytometry, OVCAR-3; settings: 72 hours
Protocol: (§1) The human ovarian carcinoma cell line A2780 was obtained from the European Collection of Cell Cultures. The human ovarian adenocarcinoma cell lines OVCAR-3 (HTB-161) and Caov-3 (HTB-75) were obtained from the American Type Culture Collection (ATCC). Paclitaxel (Sigma Aldrich, Rehovot, Israel) dissolved in DMSO was used at the following concentrations: 1 nM, 2 nM, 4 nM, 10 nM, and 100 nM. TTFields were applied in vitro using special ceramic Petri dishes with two pairs of transducer arrays printed perpendicularly on the outer walls of a Petri dish. The inner surfaces of the electrodes were coated with a high dielectric constant ceramic (lead magnesium niobate-lead titanate (PMN-PT)). […] By selectively activating the signals that were applied to the electrodes, the orientation of the TTFields was switched 90° every 1 second, thus covering the majority of the orientation axis of cell divisions, as previously described by Kirson et al. During the experiment, temperature was measured by 2 thermistors (Omega Engineering, Stamford, Conn.) attached to the walls of the Petri dish. […] Cell cycle distribution was then quantified using iCyt EC800. Fluorescence signals were collected at the wavelengths of 525/50 nm for Annexin V and 665/30 nm for 7-AAD. The data was analyzed using the Flowjo software. […]

[2] = system: Caov-3 cells; test: Cell cycle analysis by flow cytometry, Caov-3; settings: 72 hours
Protocol: as §1

[3] = system: A2780 cells; test: Cell cycle analysis by flow cytometry, A2780; settings: 8 hours
Protocol: as §1

[4] = system: A2780 cells; test: Mitotic figures analysis by confocal microscopy, A2780; settings: 4 nM paclitaxel combined with 2.7 V/cm pk-pk, 200 kHz TTFields, 72 hours, A2780, compared to control and single treatments
Protocol: (§2) The human ovarian carcinoma cell line A2780 was obtained from the European Collection of Cell Cultures. The human ovarian adenocarcinoma cell lines OVCAR-3 (HTB-161) and Caov-3 (HTB-75) were obtained from the American Type Culture Collection (ATCC). Paclitaxel (Sigma Aldrich, Rehovot, Israel) dissolved in DMSO was used at the following concentrations: 1 nM, 2 nM, 4 nM, 10 nM, and 100 nM.
(§3) TTFields were applied in vitro using special ceramic Petri dishes with two pairs of transducer arrays printed perpendicularly on the outer walls of a Petri dish. The inner surfaces of the electrodes were coated with a high dielectric constant ceramic (lead magnesium niobate-lead titanate (PMN-PT)). The transducer arrays were connected to a sinusoidal waveform generator which generated fields at 200 kHz in the medium. By selectively activating the signals that were applied to the electrodes, the orientation of the TTFields was switched 90° every 1 second, thus covering the majority of the orientation axis of cell divisions, as previously described by Kirson et al. During the experiment, temperature was measured by 2 thermistors (Omega Engineering, Stamford, Conn.) attached to the walls of the Petri dish. All cells suspensions were grown on a cover slip inside the Petri dish and treated with TTFields at intensity of 2.7 V/cm. […]

[5] = system: OVCAR-3 cells; test: Mitotic figures analysis by confocal microscopy, OVCAR-3; settings: 4 nM paclitaxel combined with 2.7 V/cm pk-pk, 200 kHz TTFields, 72 hours, OVCAR-3, compared to control and single treatments
Protocol: as §2, §3

[6] = system: Caov-3 cells; test: Mitotic figures analysis by confocal microscopy, Caov-3; settings: 4 nM paclitaxel combined with 2.7 V/cm pk-pk, 200 kHz TTFields, 72 hours, Caov-3, compared to control and single treatments
Protocol: as §2, §3

[7] = low dose paclitaxel (2, 4 and 10 nM) combined with TTFields (2.7 V/cm, 200 kHz)
[8] = paclitaxel alone, without TTFields

CC(=O)O[C@H]1C(=O)[C@@]2(C)[C@H]([C@H](OC(=O)c3ccccc3)[C@]3(O)C[C@H](OC(=O)[C@H](O)[C@@H](NC(=O)c4ccccc4)c4ccccc4)C(C)=C1C3(C)C)[C@]1(OC(C)=O)CO[C@@H]1C[C@@H]2O [paclitaxel]
number of cells in the G2/M phase [1, 7]: dramatically increased | cells in the G2/M phase [1, 8]: accumulated in the G2/M phase in a dose dependent manner | number of cells in the G2/M phase [2, 7]: dramatically increased | cells in the G2/M phase [2, 8]: accumulated in the G2/M phase in a dose dependent manner | cells in the G2/M phase ([3]; low dose paclitaxel combined with TTFields (2.7 V/cm, 200 kHz)): accumulated in the G2/M phase even after a short treatment duration | cells in the G2/M phase [3, 8]: accumulated in the G2/M phase in a dose dependent manner | mitotic figures (mitotic arrest) [4]: substantial increase in mitotic figures | mitotic figures (mitotic arrest) [5]: substantial increase in mitotic figures | mitotic figures (mitotic arrest) [6]: substantial increase in mitotic figures
